# Experimental data published in patent US8680275B2, “Fused heterocyclic compounds as orexin receptor modulators” (Janssen Pharmaceutica NV, priority 2009, dated 2014).
# What was measured:
# human orexin 1 receptor = human orexin 1 receptor (Homo sapiens (Human), UniProt O43613); assay: Human orexin 1 receptor radioligand binding ([3H]-SB674042 competition); conditions: CHO cells stably expressing human orexin 1 receptor; [3H]-SB674042 4 nM final; read-out: OR-1 Ki
# Protocol: (§1) The in vitro affinity of the compounds for the human orexin-1 and orexin-2 receptors was determined by competitive radioligand binding using [^3H]SB SB674042 (1-(5-(2-fluoro-phenyl)-2-methyl-thiazol-4-yl)-1-((S)-2-(5-phenyl-(1,3,4)oxadiazol-2-ylmethyl)-pyrrolidin-1-yl)methanone) (Langmead et al., British Journal of Pharmacology 2004, 141:340-346.) and [^3H]EMPA (N-ethyl-2[(6-methoxy-pyridin-3-yl)-(toluene-2-sulfonyl)-amino]-N-pyridin-3-ylmethyl acetamide) (Malherbe et al., British Journal of Pharmacology, 2009, 156(8), 1326-1341), respectively.
# Human Orexin 1 Receptor Radioligand Binding Studies
# Chinese ovary cells (CHO) stably expressing human orexin 1 receptor (Genebank accession number NM_001526) were grown to confluency in DMEM/F12 (Gibco, Cat #11039), 10% FBS, 1× Pen/Strep, 600 μg/mL G418 media on 150 cm^2 tissue culture plates, washed with 5 mM EDTA in PBS (HyClone Dulbecco's Phoshpate Buffered Saline 1× with Calcium and Magnesium, Cat #SH30264.01, hereafter referred to simply as PBS) and scraped into 50 ml tubes. After centrifugation (2K xG, 10 min at 4° C.), the supernatant was aspirated and the pellets frozen and stored at −80° C. Cells were resuspended in PBS in the presence of 1 tablet of protease inhibitor cocktail (Roche, Cat. #11836145001) per 50 mL. […] Compounds were solubilized in 100% DMSO (Acros Organics, Cat. #61042-1000) and tested over a range of 7 concentrations (from 0.1 nM to 10 μM). The final concentration of DMSO in the reactions is equal to or less than 0.1%. Total and nonspecific binding was determined in the absence and presence of 10 μM (1-(6,8-difluoro-2-methylquinolin-4-yl)-3-[4-(dimethylamino)phenyl]urea, CAS Registry #288150-92-5). The total volume of each reaction is 200 μL (20 μL of diluted compounds, 80 μL of [^3H]-SB674042 diluted in PBS and 100 μL of the cell suspension). Reactions were run for 60 min at room temperature and terminated by filtration through GF/C filter plates (PerkinElmer, Cat. #6005174) presoaked in 0.3% polyethylenimine using the cell harvester (PerkinElmer Filtermate). The plates were washed 3 times by aspirating 30 ml PBS through the plates. Plates were dried in 55° C. oven for 60 min, scintillation fluid was added, and the radioactivity was counted on a Topcount (Packard).
# human orexin-2 receptor = human orexin-2 receptor (Homo sapiens (Human), UniProt O43614); assay: Human orexin 2 receptor radioligand binding ([3H]-EMPA competition); conditions: HEK293 cells stably expressing human orexin-2 receptor; [3H]-EMPA 5 nM final; read-out: OR-2 Ki
# Protocol: as §1
# Human Orexin 2 Receptor Radioligand Binding Studies
# HEK293 stably expressing human orexin-2 receptor (Genebank accession number NM_001526) were grown to confluency in DMEM/F12 (Gibco, Cat #11039), in DMEM, 10% FBS, 1× Pen/Strep, 1× NaPyruvate, 1×HEPES, 600 ug/ml G418 media on 150 cm^2 tissue culture plates, washed with 5 mM EDTA in PBS (HyClone Dulbecco's Phosphate Buffered Saline 1× with Calcium and Magnesium, Cat #SH30264.01, hereafter referred to simply as PBS) and scraped into 50 ml tubes. After centrifugation (2K xG, 10 min at 4° C.), the supernatant was aspirated and the pellets frozen and stored at −80° C. Cells were resuspended in PBS in the presence of 1 tablet of protease inhibitor cocktail (Roche, Cat. #11836145001) per 50 mL. […] Competition binding experiments in 96 well polypropylene plates were performed using [^3H]-EMPA (Moravek Corporation, specific activity=27 Ci/mmol), diluted to a […] concentration in PBS (5 nM final concentration). Compounds were solubilized in 100% DMSO (Acros Organics, Cat. #61042-1000) and tested over a range of 7 concentrations (from 0.1 nM to 10 μM). The final concentration of DMSO in the reactions is equal to or less than 0.1%. Total and nonspecific binding was determined in the absence and presence of 10 μM (N-[2-(3,4-dimethoxyphenyl)ethyl]-N-methylnaphthalene-1-carboxamide, CAS Registry #1089563-88-1). The total volume of each reaction is 200 μL (20 μL of diluted compounds, 80 μL of [^3H]-EMPA diluted in PBS and 100 μL of the cell suspension). Reactions were run for 60 min at room temperature and terminated by filtration through GF/C filter plates (PerkinElmer, Cat. #6005174) presoaked in 0.3% polyethylenimine using the cell harvester (Perkin Elmer Filtermate). The plates were washed 3 times by aspirating 30 ml PBS through the plates. Plates were dried in 55° C. oven for 60 min, scintillation fluid was added, and the radioactivity was counted on a Topcount (Packard).
# Sequence of human orexin 1 receptor (O43613 whole entry): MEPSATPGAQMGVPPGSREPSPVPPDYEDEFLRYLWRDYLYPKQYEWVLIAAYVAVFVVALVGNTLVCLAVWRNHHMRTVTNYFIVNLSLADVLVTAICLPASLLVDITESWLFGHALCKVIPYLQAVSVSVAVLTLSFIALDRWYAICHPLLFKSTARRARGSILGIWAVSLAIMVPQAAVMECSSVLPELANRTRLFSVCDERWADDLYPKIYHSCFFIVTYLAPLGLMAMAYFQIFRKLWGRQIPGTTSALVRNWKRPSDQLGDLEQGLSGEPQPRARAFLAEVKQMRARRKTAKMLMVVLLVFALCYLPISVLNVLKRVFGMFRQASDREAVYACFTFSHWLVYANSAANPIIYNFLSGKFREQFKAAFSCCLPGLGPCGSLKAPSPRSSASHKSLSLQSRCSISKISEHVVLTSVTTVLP
# Sequence of human orexin-2 receptor (O43614 whole entry): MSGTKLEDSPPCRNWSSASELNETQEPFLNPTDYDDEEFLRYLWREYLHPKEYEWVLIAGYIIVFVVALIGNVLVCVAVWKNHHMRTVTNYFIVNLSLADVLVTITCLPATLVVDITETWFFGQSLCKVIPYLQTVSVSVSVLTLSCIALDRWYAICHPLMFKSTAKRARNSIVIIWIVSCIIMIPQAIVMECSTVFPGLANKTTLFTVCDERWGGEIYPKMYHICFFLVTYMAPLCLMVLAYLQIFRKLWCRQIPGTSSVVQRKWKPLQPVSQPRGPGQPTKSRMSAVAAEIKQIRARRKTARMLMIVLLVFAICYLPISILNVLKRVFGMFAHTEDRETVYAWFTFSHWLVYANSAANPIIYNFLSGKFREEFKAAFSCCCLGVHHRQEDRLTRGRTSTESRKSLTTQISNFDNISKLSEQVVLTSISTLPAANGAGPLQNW
Structure (SMILES),Ki (human orexin 1 receptor),Ki (human orexin-2 receptor)
"Cc1cnc(N2C[C@@H]3CCN(C(=O)c4cc(F)ccc4-n4nccn4)C[C@@H]32)cn1 [Example 104, (1R,6S)-3-{[5-Fluoro-2-(2H-1,2,3-triazol-2-yl)phenyl]carbonyl}-8-(5-methylpyrazin-2-yl)-3,8-diazabicyclo[4.2.0]octane]",3.54 µM,0.342 µM
"O=C(c1ccccc1-c1ccco1)N1CC[C@H]2CN(c3cnc4ccccc4n3)[C@H]2C1 [Example 6, (1R,6S)(2-Furan-2-yl-phenyl)-(8-quinoxalin-2-yl-3,8-diaza-bicyclo[4.2.0]oct-3-yl)-methanone]",0.018 µM,0.02 µM
"CN(C)c1nc(N2C[C@@H]3CCN(C(=O)c4cc(F)ccc4-n4nccn4)C[C@@H]32)cc(C(F)(F)F)n1 [Example 46, (1R,6S)-[8-(2-Dimethylamino-6-trifluoromethyl-pyrimidin-4-yl)-3,8-diaza-bicyclo[4.2.0]oct-3-yl]-(5-fluoro-2-[1,2,3]triazol-2-yl-phenyl)-methanone]",0.047 µM,0.015 µM
"CN(C)c1ccnc(N2C[C@@H]3CCN(C(=O)c4cccc(F)c4-c4ncccn4)C[C@@H]32)c1 [Example 143, 2-{(1R,6S)-3-[(3-Fluoro-2-pyrimidin-2-ylphenyl)carbonyl]-3,8-diazabicyclo[4.2.0]oct-8-yl}-N,N-dimethylpyridin-4-amine]",10 µM,9 µM
"Cc1ccnc(N2C[C@@H]3CCN(C(=O)c4cc(F)ccc4-n4nccn4)C[C@@H]32)c1 [Example 127, (1R,6S)-3-{[5-Fluoro-2-(2H-1,2,3-triazol-2-yl)phenyl]carbonyl}-8-(4-methylpyridin-2-yl)-3,8-diazabicyclo[4.2.0]octane]",10 µM,0.21 µM
"O=C(c1cc(F)ccc1-c1ncccn1)N1CC[C@H]2CN(c3cnc4ccccc4n3)[C@H]2C1 [Example 33, (1R,6S)(5-Fluoro-2-pyrimidin-2-yl-phenyl)-(8-quinoxalin-2-yl-3,8-diaza-bicyclo[4.2.0]oct-3-yl)-methanone]",–,0.051 µM
"Cc1cc(C)nc(N2C[C@@H]3CCN(C(=O)c4c(C)noc4-c4snnc4C)C[C@@H]32)n1 [Example 180, (1R,6S)-8-(4,6-Dimethylpyrimidin-2-yl)-3-{[3-methyl-5-(4-methyl-1,2,3-thiadiazol-5-yl)isoxazol-4-yl]carbonyl}-3,8-diazabicyclo[4.2.0]octane]",10 µM,6.5 µM
"O=C(c1ccccc1-c1cccs1)N1CC[C@H]2CN(c3cnc4ccccc4n3)[C@H]2C1 [Example 4, (1R,6S)(8-Quinoxalin-2-yl-3,8-diaza-bicyclo[4.2.0]oct-3-yl)-(2-thiophen-2-yl-phenyl)-methanone]",–,0.007 µM
"Cc1nccnc1N1C[C@@H]2CCN(C(=O)c3cccc(F)c3-n3nccn3)C[C@@H]21 [Example 109, (1R,6S)-3-{[3-Fluoro-2-(2H-1,2,3-triazol-2-yl)phenyl]carbonyl}-8-(3-methylpyrazin-2-yl)-3,8-diazabicyclo[4.2.0]octane]",–,10 µM
"CCOc1ccc2ccccc2c1C(=O)N1CC[C@H]2CN(c3nc(C)cc(C)n3)[C@H]2C1 [Example 24, (1R,6S)[8-(4,6-Dimethyl-pyrimidin-2-yl)-3,8-diaza-bicyclo[4.2.0]oct-3-yl]-(2-ethoxy-naphthalen-1-yl)-methanone]",–,0.006 µM
"Cc1nccnc1N1C[C@@H]2CCN(C(=O)c3cc(F)ccc3-n3nccn3)C[C@@H]21 [Example 107, (1R,6S)-3-{[5-Fluoro-2-(2H-1,2,3-triazol-2-yl)phenyl]carbonyl}-8-(3-methylpyrazin-2-yl)-3,8-diazabicyclo[4.2.0]octane]",10 µM,–
"Cc1cc(C)nc(N2C[C@@H]3CCN(C(=O)c4ccccc4-c4ccco4)C[C@@H]32)n1 [Example 2, (1R,6S)[8-(4,6-Dimethyl-pyrimidin-2-yl)-3,8-diaza-bicyclo[4.2.0]oct-3-yl]-(2-furan-2-yl-phenyl)-methanone]",–,0.004 µM
"COc1cnc(C)nc1C(=O)N1CC[C@H]2CN(c3nc(C)cc(C)n3)[C@H]2C1 [Example 136, (1R,6S)-8-(4,6-Dimethylpyrimidin-2-yl)-3-[(5-methoxy-2-methylpyrimidin-4-yl)carbonyl]-3,8-diazabicyclo[4.2.0]octane]",10 µM,–

# Next, values leading:
Ki (human orexin 1 receptor),Ki (human orexin-2 receptor),Structure (SMILES)
10 µM,1.5 µM,"Cc1cc(C)nc(N2C[C@@H]3CCN(C(=O)c4ncccc4-n4ccnn4)C[C@@H]32)n1 [Example 182, (1R,6S)-8-(4,6-Dimethylpyrimidin-2-yl)-3-{[3-(1H-1,2,3-triazol-1-yl)pyridin-2-yl]carbonyl}-3,8-diazabicyclo[4.2.0]octane]"
≥ 10 µM,0.15 µM,"COc1ccc(C(=O)N2CC[C@H]3CN(c4nc(C)cc(C)n4)[C@H]3C2)c(-n2nccn2)c1 [Example 90, (1R,6S)-8-(4,6-Dimethylpyrimidin-2-yl)-3-{[4-methoxy-2-(2H-1,2,3-triazol-2-yl)phenyl]carbonyl}-3,8-diazabicyclo[4.2.0]octane]"
–,0.034 µM,"Cc1cc(N2C[C@@H]3CCN(C(=O)c4cc(F)ccc4-n4nccn4)C[C@@H]32)nc(C(F)(F)F)n1 [Example 42, (1R,6S)-(5-Fluoro-2-[1,2,3]triazol-2-yl-phenyl)-[8-(6-methyl-2-trifluoromethyl-pyrimidin-4-yl)-3,8-diaza-bicyclo[4.2.0]oct-3-yl]-methanone]"
0.416 µM,–,"Cc1cc(C)nc(N2C[C@@H]3CCN(C(=O)c4ccccc4-n4nccn4)C[C@@H]32)n1 [Example 25, (1R,6S)-[8-(4,6-Dimethyl-pyrimidin-2-yl)-3,8-diaza-bicyclo[4.2.0]oct-3-yl]-(2-[1,2,3]triazol-2-yl-phenyl)-methanone]"
–,0.048 µM,"Cc1cc(C)nc(N2C[C@@H]3CCN(C(=O)c4ccccc4-c4ncn[nH]4)C[C@@H]32)n1 [Example 172, (1R,6S)-8-(4,6-Dimethylpyrimidin-2-yl)-3-{[2-(1H-1,2,4-triazol-5-yl)phenyl]carbonyl}-3,8-diazabicyclo[4.2.0]octane]"
0.441 µM,–,"Cc1cc(C)nc(N2C[C@@H]3CCN(C(=O)c4cc(F)ccc4-n4nccn4)C[C@@H]32)n1 [Example 41, (1R,6S)-[8-(4,6-Dimethyl-pyrimidin-2-yl)-3,8-diaza-bicyclo[4.2.0]oct-3-yl]-(5-fluoro-2-[1,2,3]triazol-2-yl-phenyl)-methanone]"
0.697 µM,–,"Cc1cc(N2C[C@@H]3CCN(C(=O)c4ccc(F)cc4-n4nccn4)C[C@@H]32)nc(N(C)C)n1 [Example 45, (1R,6S)-[8-(2-Dimethylamino-6-methyl-pyrimidin-4-yl)-3,8-diaza-bicyclo[4.2.0]oct-3-yl]-(4-fluoro-2-[1,2,3]triazol-2-yl-phenyl)-methanone]"
